Assay: Solubility of LiPO2F2 (and by-product salts) in organic solvents
Assay type: physicochemical
Description: If it is desired to isolate LiPO2F2 and Li2PO3F from any LiF, polar aprotic solvents can be applied. For example, dialkyl carbonates are suitable for this purpose. Other solvents are acetone, isopropanol, tetrahydrofurane, ethyl acetate, acetonitrile, and diethyl carbonate. If it is desired to isolate selectively LiPO2F2, propylene carbonate was identified as very suitable solvent because LiPO2F2 is soluble therein, and Li2PO3F and also LiF are not. Other very suitable solvents are diethyl carbonate, a mixture of dimethyl carbonate and propylene carbonate, acetonitrile, dimethoxyethane and acetone. The solubility of LiPO2F2 in these solvents at ambient temperature is compiled in the following table 1.
Under inert gas (nitrogen), pure LiPO2F2 was dissolved in propylene carbonate at about 20° C. such that a solution is obtained comprising about 2.75% by weight of LiPO2F2.
Under inert gas (nitrogen), pure LiPO2F2 was dissolved in the respective solvent or solvent mixture at about 20° C. such that a solution containing the amounts of dissolved LiPO2F2 given in the following table 3 were achieved. The data for solution No. 1 was taken from example 4, the data for solutions No. 2 to 6 of table 3 correspond to those of table 1.

Structure (SMILES): [F-].[Li+] [LiF]
- Solubility in acetone (in words) (acetone): very low solubility
- Solubility in dimethoxyethane (in words) (dimethoxyethane): at most in neglectable amounts
- Solubility in dimethyl carbonate, propylene carbonate and mixtures thereof (in words) (dimethyl carbonate, propylene carbonate and mixtures thereof): at most in neglectable amounts
- Solubility in propylene carbonate (in words) (propylene carbonate): are not

Source: patent publication US20130115522A1, “Manufacture of LiPO2F2” (SOLVAY SA, priority 2010, published 2013)
